Paper PMC5656517 (European journal of pharmaceutical sciences : official …, 2017)
Values after ≈ are worked out from the molar mass of the structure shown. Where two headings read alike, the source gives them in different places.

How the values were obtained:
CYP2C9 [1] = target: T1, CYP2C9 (Homo sapiens, UniProt P11712); experiment: Single concentration; conditions: human liver microsomes
CYP3A4 [2] = target: T2, CYP3A4 (Homo sapiens, UniProt P08684); type: in vitro ADME; conditions: human liver microsomes, 100 µM
Target sequence in this assay (P08684 whole entry): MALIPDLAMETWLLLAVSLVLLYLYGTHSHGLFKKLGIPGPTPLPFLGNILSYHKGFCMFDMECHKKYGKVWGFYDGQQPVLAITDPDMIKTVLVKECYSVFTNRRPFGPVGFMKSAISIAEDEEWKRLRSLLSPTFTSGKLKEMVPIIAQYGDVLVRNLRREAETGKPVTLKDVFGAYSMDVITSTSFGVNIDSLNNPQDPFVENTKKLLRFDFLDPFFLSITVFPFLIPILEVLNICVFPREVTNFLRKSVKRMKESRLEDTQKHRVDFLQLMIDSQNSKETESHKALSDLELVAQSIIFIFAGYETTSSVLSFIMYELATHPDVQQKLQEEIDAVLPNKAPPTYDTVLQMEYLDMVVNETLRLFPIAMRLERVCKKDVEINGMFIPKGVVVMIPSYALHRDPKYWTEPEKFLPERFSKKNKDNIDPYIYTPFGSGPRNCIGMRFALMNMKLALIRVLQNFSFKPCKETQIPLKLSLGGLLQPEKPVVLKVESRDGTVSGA

CYP2C9 [3] = target: T1, CYP2C9; experiment: Cocktail assay IC50 determination in human liver microsomes
CYP2D6 = CYP2D6 (Homo sapiens, UniProt P10635); experiment: as above; conditions: substrate dextromethorphan, mean ± standard deviation
CYP2C = conditions: ref He et al. (2015); cited from earlier work
CYP2C8 [4] = target: T3, CYP2C8 (Homo sapiens, UniProt P10632); experiment: Cocktail assay IC50 determination in human liver microsomes; conditions: substrate amodiaquine, mean ± standard deviation
T3 sequence (P10632 1-490): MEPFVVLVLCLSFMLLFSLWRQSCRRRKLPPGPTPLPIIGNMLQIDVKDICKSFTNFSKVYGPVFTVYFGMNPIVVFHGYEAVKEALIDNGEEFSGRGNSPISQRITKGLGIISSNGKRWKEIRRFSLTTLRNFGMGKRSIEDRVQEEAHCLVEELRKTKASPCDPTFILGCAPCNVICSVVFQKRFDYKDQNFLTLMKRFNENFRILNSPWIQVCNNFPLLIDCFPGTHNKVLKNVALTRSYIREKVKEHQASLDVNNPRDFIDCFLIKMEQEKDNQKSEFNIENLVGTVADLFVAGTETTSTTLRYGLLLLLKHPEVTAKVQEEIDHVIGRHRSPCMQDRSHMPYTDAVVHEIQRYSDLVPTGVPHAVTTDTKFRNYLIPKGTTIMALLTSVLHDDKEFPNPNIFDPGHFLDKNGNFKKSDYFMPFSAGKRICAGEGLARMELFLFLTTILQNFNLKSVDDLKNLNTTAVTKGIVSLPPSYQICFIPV

cytochrome P450 enzymes = experiment: Single concentration; conditions: test concentration of 10 µM
CYP3A4 [5] = target: T2, CYP3A4; type: in vitro ADME; conditions: recombinant human CYP3A4, 20 µM
Target sequence in this assay (P08684 2-503 limits assumed): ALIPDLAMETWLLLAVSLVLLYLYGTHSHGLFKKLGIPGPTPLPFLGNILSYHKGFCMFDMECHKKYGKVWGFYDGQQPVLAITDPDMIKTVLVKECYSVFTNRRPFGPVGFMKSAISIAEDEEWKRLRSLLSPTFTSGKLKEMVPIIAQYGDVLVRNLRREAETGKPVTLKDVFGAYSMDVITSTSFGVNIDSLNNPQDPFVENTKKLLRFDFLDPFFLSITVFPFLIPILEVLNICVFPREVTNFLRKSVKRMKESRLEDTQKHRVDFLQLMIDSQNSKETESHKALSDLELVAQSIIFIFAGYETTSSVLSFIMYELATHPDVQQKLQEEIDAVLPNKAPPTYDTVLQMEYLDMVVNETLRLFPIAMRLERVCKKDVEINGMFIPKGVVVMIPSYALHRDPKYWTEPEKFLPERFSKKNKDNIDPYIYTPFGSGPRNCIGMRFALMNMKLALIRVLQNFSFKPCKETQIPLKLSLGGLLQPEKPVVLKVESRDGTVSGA

CYP2C8 [6] = target: T3, CYP2C8; experiment: Single concentration; conditions: human liver microsomes
CYP3A4 [7] = target: T2, CYP3A4; experiment: Effect of washing to restore CYP3A4 activity, human liver microsomes; type: in vitro ADME; conditions: 50 µM, 30 min preincubation, washed 3 times, midazolam
Target sequence in this assay (P08684 whole entry): as the sequence (P08684 whole entry) above

CYP2E1 = CYP2E1 (Homo sapiens, UniProt P05181); experiment: Cocktail assay IC50 determination in human liver microsomes; conditions: substrate chloroxazone
CYP3A4 (testosterone) = conditions: ref He et al. (2015); cited from earlier work
CYP3A4 [8] = target: T2, CYP3A4; experiment: Single concentration; conditions: human liver microsomes
Target sequence in this assay (P08684 whole entry): as above

CYP1A2 [9] = target: T4, CYP1A2 (Homo sapiens, UniProt P05177); experiment: Cocktail assay IC50 determination in human liver microsomes; conditions: substrate phenacetin, mean ± standard deviation
T4 sequence (P05177 1-516): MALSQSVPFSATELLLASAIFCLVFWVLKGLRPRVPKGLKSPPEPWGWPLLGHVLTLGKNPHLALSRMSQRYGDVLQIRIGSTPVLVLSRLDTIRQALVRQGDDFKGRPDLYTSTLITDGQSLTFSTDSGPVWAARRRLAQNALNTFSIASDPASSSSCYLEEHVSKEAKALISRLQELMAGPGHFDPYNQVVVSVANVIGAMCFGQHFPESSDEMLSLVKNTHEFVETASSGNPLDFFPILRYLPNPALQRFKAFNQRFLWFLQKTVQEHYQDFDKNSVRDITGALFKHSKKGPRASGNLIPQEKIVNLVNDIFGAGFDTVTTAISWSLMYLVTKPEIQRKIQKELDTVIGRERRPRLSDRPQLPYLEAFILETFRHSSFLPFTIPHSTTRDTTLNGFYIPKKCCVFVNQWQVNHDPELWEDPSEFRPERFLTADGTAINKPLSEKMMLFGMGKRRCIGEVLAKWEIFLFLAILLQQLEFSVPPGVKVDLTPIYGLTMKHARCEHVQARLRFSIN

CYP1A2 [10] = target: T4, CYP1A2; conditions: ref He et al. (2015); cited from earlier work
CYP2A6 = target: T5, CYP2A6 (Homo sapiens, UniProt P11509); experiment: Cocktail assay IC50 determination in human liver microsomes; conditions: substrate coumarin
T5 sequence (P11509 1-494): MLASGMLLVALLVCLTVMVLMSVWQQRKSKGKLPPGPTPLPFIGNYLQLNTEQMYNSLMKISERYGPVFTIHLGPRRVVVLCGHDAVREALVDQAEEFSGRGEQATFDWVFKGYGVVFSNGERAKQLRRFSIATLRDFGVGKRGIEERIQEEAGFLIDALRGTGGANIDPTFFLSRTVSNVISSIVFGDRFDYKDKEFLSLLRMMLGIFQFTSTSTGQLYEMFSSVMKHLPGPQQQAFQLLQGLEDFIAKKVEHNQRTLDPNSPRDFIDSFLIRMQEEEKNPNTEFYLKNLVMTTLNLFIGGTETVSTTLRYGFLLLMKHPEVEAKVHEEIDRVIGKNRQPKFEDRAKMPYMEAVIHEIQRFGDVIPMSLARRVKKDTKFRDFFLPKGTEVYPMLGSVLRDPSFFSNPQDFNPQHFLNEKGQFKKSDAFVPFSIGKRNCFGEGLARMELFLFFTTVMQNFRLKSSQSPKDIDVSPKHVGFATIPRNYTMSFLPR

[11] = NADPH, 1000 U/mL superoxide dismutase
[12] = without NADPH, mean of two experiments

T1 sequence (P11712 whole entry): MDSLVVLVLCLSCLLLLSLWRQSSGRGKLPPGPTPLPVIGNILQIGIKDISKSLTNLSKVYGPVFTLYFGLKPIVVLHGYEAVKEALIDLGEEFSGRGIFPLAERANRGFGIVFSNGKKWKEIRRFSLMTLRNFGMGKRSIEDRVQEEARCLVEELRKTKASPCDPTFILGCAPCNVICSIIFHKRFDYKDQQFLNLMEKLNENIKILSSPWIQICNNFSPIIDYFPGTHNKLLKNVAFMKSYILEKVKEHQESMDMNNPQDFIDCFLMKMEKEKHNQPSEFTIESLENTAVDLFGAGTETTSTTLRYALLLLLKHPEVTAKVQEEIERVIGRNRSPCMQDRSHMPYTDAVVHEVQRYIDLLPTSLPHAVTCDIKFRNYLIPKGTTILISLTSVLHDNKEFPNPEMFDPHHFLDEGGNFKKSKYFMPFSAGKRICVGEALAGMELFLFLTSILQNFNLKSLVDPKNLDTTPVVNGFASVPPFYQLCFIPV
CYP2E1, sequence (P05181 whole entry): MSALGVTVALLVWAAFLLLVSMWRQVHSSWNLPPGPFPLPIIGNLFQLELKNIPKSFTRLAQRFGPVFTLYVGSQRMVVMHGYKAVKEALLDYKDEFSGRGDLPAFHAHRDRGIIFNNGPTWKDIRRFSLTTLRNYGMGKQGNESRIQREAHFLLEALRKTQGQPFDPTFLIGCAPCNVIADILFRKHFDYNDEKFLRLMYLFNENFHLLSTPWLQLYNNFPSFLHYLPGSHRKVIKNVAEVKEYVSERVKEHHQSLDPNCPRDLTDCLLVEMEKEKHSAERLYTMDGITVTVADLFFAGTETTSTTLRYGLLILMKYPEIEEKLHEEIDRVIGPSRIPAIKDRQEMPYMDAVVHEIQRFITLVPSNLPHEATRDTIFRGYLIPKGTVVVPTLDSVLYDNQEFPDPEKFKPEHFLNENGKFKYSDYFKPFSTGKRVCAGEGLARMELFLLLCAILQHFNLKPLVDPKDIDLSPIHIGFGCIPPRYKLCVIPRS
CYP2D6, sequence (P10635 whole entry): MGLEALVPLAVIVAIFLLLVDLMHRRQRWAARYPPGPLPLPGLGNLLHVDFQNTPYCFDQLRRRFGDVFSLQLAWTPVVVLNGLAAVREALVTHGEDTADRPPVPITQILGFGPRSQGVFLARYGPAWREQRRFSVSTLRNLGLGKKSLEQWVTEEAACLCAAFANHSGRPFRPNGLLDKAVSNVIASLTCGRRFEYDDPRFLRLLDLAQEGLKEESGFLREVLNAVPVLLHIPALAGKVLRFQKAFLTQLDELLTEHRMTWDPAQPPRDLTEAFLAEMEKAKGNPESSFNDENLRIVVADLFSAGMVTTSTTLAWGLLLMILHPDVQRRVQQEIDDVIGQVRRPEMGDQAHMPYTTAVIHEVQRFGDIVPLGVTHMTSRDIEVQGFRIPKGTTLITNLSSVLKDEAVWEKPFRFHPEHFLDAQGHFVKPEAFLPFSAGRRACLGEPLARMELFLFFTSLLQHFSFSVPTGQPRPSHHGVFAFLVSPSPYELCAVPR

SMILES: C=CC(C)(C)c1cc(/C=C/C(=O)c2ccc(O)cc2)c(OC)cc1O [Licochalcone A, licochalcone A]
- inhibition of CYP2C9 at 10 µM, in words (CYP2C9 [1]): strongly inhibited
- % Control activity (CYP3A4 [2]; NADPH, 2 mM glutathione): 38.5%
- % Control activity (CYP3A4 [2]; NADPH, 1000 U/mL catalase): 42.4%
- % Control activity (CYP3A4 [2]; [11]): 46.9%
- % Control activity (CYP3A4 [2]; NADPH, mean of two experiments): 49.5%
- % Control activity (CYP3A4 [2]; [12]): 100%
- IC50, CYP2C9 (CYP2C9 [3]; lower end of the range of IC50 values): high nM levels
- IC50, CYP2C9 (CYP2C9 [3]; substrate tolbutamide, mean ± standard deviation): 0.78 ± 0.09 µg/mL (≈ 2.3 µM)
- IC50, CYP2D6 (CYP2D6): 17.23 ± 1.68 µg/mL (≈ 50.9 µM)
- inhibition of CYP2C, in words (CYP2C): strongly inhibited
- IC50, CYP2C8 (CYP2C8 [4]): 1.05 ± 0.08 µg/mL (≈ 3.1 µM)
- inhibition of one or more cytochrome P450 enzymes (cytochrome P450 enzymes): more than 50%
- % Control activity (CYP3A4 [5]; NADPH, 2 mM glutathione): 32.4%
- % Control activity (CYP3A4 [5]; NADPH, 1000 U/mL catalase): 38.8%
- % Control activity (CYP3A4 [5]; [11]): 28.1%
- % Control activity (CYP3A4 [5]; NADPH, mean of two experiments): 42.0%
- % Control activity (CYP3A4 [5]; [12]): 100%
- inhibition of CYP2C8 at 10 µM, in words (CYP2C8 [6]): strongly inhibited
- remaining enzyme activity after washing out the inhibitor (CYP3A4 [7]): 57%
- IC50, CYP2E1 (CYP2E1): >25 µg/mL
- inhibition of CYP3A4 (testosterone), in words (CYP3A4 (testosterone)): strongly inhibited
- inhibition of CYP3A4 (testosterone) at 10 µM, in words (CYP3A4 [8]): moderate inhibitor
- IC50, CYP1A2 (CYP1A2 [9]): 12.40 ± 3.47 µg/mL (≈ 36.6 µM)
- inhibition of CYP1A2, in words (CYP1A2 [10]): strongly inhibited
- IC50, CYP2A6 (CYP2A6): >25 µg/mL
